We go through two substances from patent US9410152B2, “Use of microrna molecules to influence skin pigmentation” (CHANEL PARFUMS BEAUTE, priority 2011, dated 2016).

The test system of data set [1] is protein TYRP1. As to the kind of experiment: Western blot of TYRP1 protein. The format is cell-based, human. Conditions: MNT-1 cells, 50 nM mimetic, day 12. The method, then:
(§1) 4×10^5 MNT-1 cells were seeded per well in a 6-well plate (#353046, Falcon) on day-1. On day 0, the cells were transfected with 50 nM of mimetic of the miRNAs (hsa-mir-137 # C-300604-07-005, hsa-mir-7 # C-300547-05-0005, hsa-mir-330-5p # C-301082-01-0005, negative control # NC-002000-01-05, Dharmacon), using 5 μL of Lipofectamine 2000 (#1668-019, Invitrogen). On day 1, the medium was changed. On day 3, the cells were trypsinized and seeded at 4×10^5 cells per well. On day 4, the cells were transfected again with 50 nM of mimetic of the miRNAs (see day 0). On day 5, the medium was changed. On day 7, the cells were trypsinized and seeded at 4×10^5 cells per well. On day 8, the cells were transfected with 50 nM of mimetic of the miRNAs (see day 0). On day 9, the medium was changed. On day 10, the cells were trypsinized and divided into two (from one by six wells to two by six wells). On day 12, one six-well plate was used for lysis of the RNA and the other for lysis of the proteins. As positive control of depigmentation, MNT-1 cells were incubated with 3.5 mM of kojic acid (Sigma K3125-5G) for 12 days. The cells were distributed as described and the kojic acid was renewed with the medium every 4 days. The percentage inhibition of the kojic acid is of the order of 10%. […] The concentration of proteins was determined with the BCA Protein Assay (ThermoFisher). […]
For orientation: In western blotting, separated proteins are transferred to a membrane and probed.

Data set [2] relates to MLANA. In words: Western blot of MLANA protein. Conditions: MNT-1 cells, 50 nM mimetic, day 12. The format is cell-based, human. The method, then:
as §1

Data set [3] concerns binding site of miR-330-5p in the 3'UTR of tyrosinase (TYR), WT. As to the kind of experiment: Luciferase reporter assay, wild-type (WT) TYR 3'UTR binding site. Conditions: Lu1205 human melanoma cells, 50 nM mimetic co-transfected, relative to control without insert. Format: cell-based. An excerpt:
(§2) The predicted binding site of miR-330-5p in the 3′UTR (position 68-75 of 3′UTR with total length of 393nt) of TYR (NM 000372) including the adjacent bases was designed using the following primers, and was cloned into the pmirGLO reporter vector (Promega) downstream of the region coding for firefly luciferase and using the Pmel and XbaI sites.
(§3) Ligation of the primers LL2086 (sense) and LL2087 (antisense) represents the wild-type (WT) TYR 3′UTR sequence, whereas ligation of the primers LL2088 (sense) and LL2089 (antisense) represents the mutated form of the binding site of the miR-330-Site 5p in the 3′UTR TYR region (MUT). All the constructs were confirmed by sequencing. On D0, 200,000 Lu1205 cells were seeded in 12-well plates. On D1, the Lu1205 cells were transfected with either 30 ng of pmirGLO empty vector (without insert), or 30 ng of WT construct, or 30 ng of MUT construct. At the same time, the cells were co-transfected with 50 nM of mimetic of miR-330-5p (Dharmacon) using Lipofectamine 2000 (Invitrogen). Forty-eight hours after transfection, the cells were collected and analyzed both with firefly luciferase and with Renilla luciferase (included in the pmirGLO vector) using the luciferase double assay (Promega) and a luminometer (Microlumatplus LB96V, Berthold Technologies). […] The relative luciferase activity was calculated, establishing the condition of non-insertion as 1.
In general terms: A reporter such as luciferase makes a cellular process visible.

Data set [4] deals with mutated form of the binding site of miR-330-5p in the 3'UTR TYR region (MUT). As to the kind of experiment: Luciferase reporter assay, mutated (MUT) TYR 3'UTR binding site. Format: cell-based. The settings on record: Lu1205 human melanoma cells, 50 nM mimetic co-transfected, relative to control without insert.
Description: as §2, §3

For the substance “hsa-miR-137: mimetic of miRNA hsa-mir-137 (Dharmacon C-300604-07-005); mature sequence SEQ ID NO: 3 (UUAUUGCUUAAGAAUACGCGUAG; commercial mimic, chemistry not given here; listed as Homo sapiens)”, the “level of protein TYRP1 (Western blot)” value in data set [1] is reported as “reduces the level of protein TYRP1 slightly”. The “level of protein MLANA (Western blot)” value in data set [2] is reported as “eliminates”.
Consider “hsa-miR-330-5p: mimetic of miRNA hsa-mir-330-5p (Dharmacon C-301082-01-0005); mature sequence 5'-UCUCUGGGCCUGUGUCUUAGGC-3' (SEQ ID NO: 1) (UCUCUGGGCCUGUGUCUUAGGC; mimic duplex, passenger strand not given here; listed as Homo sapiens)”, for which, in data set [3], the “luciferase activity, WT construct” value is “considerably reduced”. For the same substance, in data set [4], the “luciferase activity, MUT construct” value was “restoration of luciferase activity”.
